Measurements: US8952055B2 (priority 2008, dated 2015)
Like-named read-outs stand apart in the source and are kept apart here.

What was measured:
[1] = tested on: influenza viruses (A/PR8/34/H1N1); assay: microbe, parasite or virus in culture; conditions: H1N1|PR8, MDCK, read-out: EC50 Antiviral effect (50% effective concentration), viral infectivity-inhibiting effect
[2] = tested on: influenza viruses (A/PR8/34/H1N1); assay: microbe, parasite or virus in culture; conditions: H1N1|PR8, MDCK, read-out: EC50 Antiviral effect (50% effective concentration), viral infection-preventing effect
[3] = tested on: canine kidney cultured cells (MDCK); conditions: read-out: CC50 Cytotoxicity (50% cytotoxic concentration); Table 3
[4] = tested on: influenza viruses (A/PR8/34/H1N1); assay: Hemagglutination assay with chicken erythrocytes; type: cell-based, influenza virus; conditions: final concentrations 0 to 16 μmol/l, FIG. 3
[5] = tested on: influenza viruses (A/PR8/34/H1N1); conditions: for EC50: read-out: EC50 Antiviral effect (50% effective concentration), viral infectivity-inhibiting effect
[6] = tested on: influenza viruses (A/PR8/34/H1N1); conditions: for EC50: read-out: EC50 Antiviral effect (50% effective concentration), viral infection-preventing effect

Compound	EC50 [1]	EC50 [2]	CC50 [3]	suppression of agglutination of the erythrocytes [4]	SI Selectivity (Selective Index = CC50/EC50) ([5]; Table 4, viral infectivity-inhibiting effect)	EC50 ([5]; Table 4, sample incubated with A/PR8/34/H1N1 for 30 minutes before application to MDCK cells)	EC50 ([5]; Table 6, Example 3, comparison with zanamivir and oseltamivir phosphate)	SI Selectivity (Selective Index = CC50/EC50) ([6]; Table 3, viral infection-preventing effect)	EC50 [6]	EC50 ([6]; Table 5, Example 3, comparison with zanamivir and oseltamivir phosphate)
CC(=O)N[C@H]1[C@H]([C@H](O)[C@H](O)CO)OC(C(=O)O)=C[C@@H]1N=C(N)N [zanamivir]	6.3 µM	38 µM	–	–	–	–	–	–	–	–
CCOC(=O)C1=C[C@@H](OC(CC)CC)[C@H](NC(C)=O)[C@@H](N)C1 [oseltamivir phosphate]	56.2 µM	58.2 µM	–	–	–	–	–	–	–	–
O=C(O[C@@H]1Cc2c(O)cc(O)cc2O[C@@H]1c1cc(O)c(O)c(O)c1)c1cc(O)c(O)c(O)c1 [EGCG, epigallocatechin gallate]	–	–	276 µM	not observed	703	0.391 µM	0.391 µM	2.91	94.6 µM	94.7 µM
